In BindingDB's records for patent US10730849 (Merck Sharp & Dohme Corp., 2020):

Target: T1, Stimulator of interferon genes protein [R71H,G230A,H232R,R293Q] (Homo sapiens, UniProt Q86WV6, G230A/H232R/R293Q/R71H)
T1 construct: gene STING1
Assay: STING Biochemical [3H]cGAMP Competition Assay
Text: The binding assay employs STING receptor obtained from Hi-Five cell membranes overexpressing full-length HAQ STING prepared in-house and tritiated cGAMP ligand also purified in-house.

T1 sequence (Q86WV6 whole entry R71H/G230A/H232R/R293Q, looked up): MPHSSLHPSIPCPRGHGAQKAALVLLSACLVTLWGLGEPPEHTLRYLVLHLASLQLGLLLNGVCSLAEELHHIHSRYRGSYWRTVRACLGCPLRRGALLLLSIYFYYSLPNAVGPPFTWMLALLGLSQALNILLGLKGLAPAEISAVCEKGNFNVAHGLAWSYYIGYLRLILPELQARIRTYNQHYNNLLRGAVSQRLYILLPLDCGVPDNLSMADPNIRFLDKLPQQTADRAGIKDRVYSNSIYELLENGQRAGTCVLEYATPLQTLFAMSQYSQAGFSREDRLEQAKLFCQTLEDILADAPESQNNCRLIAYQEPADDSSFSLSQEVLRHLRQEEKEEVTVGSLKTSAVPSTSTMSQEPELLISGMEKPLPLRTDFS

- EC50: 5.99 µM
SMILES: COc1cc2cc(C(=O)CCC(=O)OC(C)(C)C)sc2cc1OC [US10730849, Example 12]
